The values below come from patent publication US8420657B2 (Novartis AG, priority 2008, dated 2013).

The target of the assay is T1, GST-JAK2(808-1132) (Homo sapiens, UniProt O60674).
T1 construct: GST-JAK2(808-1132); purchased Invitrogen (Carlsbad, USA) #4288
T1 sequence (O60674 808-1132): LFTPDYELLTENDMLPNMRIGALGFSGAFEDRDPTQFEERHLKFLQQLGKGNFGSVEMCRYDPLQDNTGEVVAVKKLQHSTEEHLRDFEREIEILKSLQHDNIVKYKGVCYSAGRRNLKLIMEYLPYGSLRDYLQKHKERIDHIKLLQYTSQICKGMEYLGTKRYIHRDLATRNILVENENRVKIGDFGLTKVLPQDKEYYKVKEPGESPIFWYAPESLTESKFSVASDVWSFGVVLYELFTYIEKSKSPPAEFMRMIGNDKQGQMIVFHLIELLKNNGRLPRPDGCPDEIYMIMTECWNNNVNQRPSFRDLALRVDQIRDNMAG
The assay can be described thus: JAK2 kinase assay (Caliper mobility shift, LabChip 3000). The assay is classed as biochemical. The source says: All four kinases of the JAK/TYK-kinase family were used as purified recombinant GST-fusion proteins, containing the active kinase domains. GST-JAK1 (866-1154), GST-JAK3(811-1124), and GST-TYK2(888-1187) were expressed and purified by affinity chromatography at the EPK biology unit. GST-JAK2(808-1132) was purchased from Invitrogen (Carlsbad, USA, #4288).
The kinase assays were based on the Caliper mobility shift assay using the LabChip 3000 systems. This technology is similar to capillary electrophoresis and uses charge driven separation of substrate and product in a microfluidic chip.
All kinase reactions were performed in 384 well microtiter plates in a total reaction volume of 18 μl. The assay plates were prepared with 0.1 μl per well of test compound in the appropriate test concentration, as described under the section “preparation of compound dilutions”. The reactions were started by combining 9 μl of substrate mix (consisting of peptide and ATP) with 9 μl of kinase dilution. The reactions were incubated for 60 minutes at 30° C. and stopped by adding 70 μl of stop buffer (100 mM Hepes, 5% DMSO, 0.1% Coating reagent, 10 mM EDTA, 0.015% Brij 35).
Fluorescently labeled synthetic peptides were used as substrates in all reactions. A peptide derived from the sequence of IRS-1(IRS-1 peptide, SEQ ID NO: 1 FITC-Ahx-KKSRGDYMTMQIG-NH2) was used for JAK1 and TYK2 and a peptide named JAK3tide SEQ ID NO: 2 (FITC-GGEEEEYFELVKKKK-NH2) for JAK2 and JAK3. Specific assay conditions are described in Table1:
The terminated reactions were transferred to the Caliper LabChip 3000 reader and the turnover of each reaction was measured by determining the substrate/product ratio.
Test compounds were dissolved in DMSO (10 mM) and transferred into 1.4 mL flat bottom or V-shaped Matrix tubes carrying a unique 2D matrix chip by individual compound hubs. The numbers of these chips were distinctively linked to the individual compound identification numbers. The stock solutions were stored at −20° C. if not used immediately. For the test procedure the vials were defrosted and identified by a scanner whereby a working sheet was generated that guided the subsequent working steps. Compound dilutions were made in 96 well plates. This format enabled the assay of maximally 40 individual test compounds at 8 concentrations (single points) including 4 reference compounds. The dilution protocol included the production of pre-dilution plates, master plates and assay plates:
Pre-dilution plates: 96 polypropylene well plates were used as pre-dilution plates. A total of 4 pre-dilution plates were prepared including 10 test compounds each on the plate positions A1-A10, one standard compound at A11 and one DMSO control at A12. All dilution steps were done on a HamiltonSTAR robot.
Master plates: 100 μL of individual compound dilutions including standard compound and controls of the 4 “pre-dilution plates” were transferred into a 384 “master plate” including the following concentrations 1,820, […], 182, 54.6, 18.2, 5.46, 1.82 and 0.546 μM, respectively in 90% of DMSO.
Assay plates: Identical assay plates were then prepared by pipetting 100 nL each of compound dilutions of the master plates into 384-well “assay plates”. In the following the compounds were mixed with 9 μL of assays components plus 9 μL enzyme corresponding to a 1:181 dilution steps enabling the final concentration of 10, 3.0, 1.0, 0.3, 0.1, 0.03, 0.01 and 0.003 μM, respectively. The preparation of the master plates were handled by the Matrix PlateMate Plus robot and replication of assay plates by the HummingBird robot.
Take `C[C@@H]1CN[C@@H](C)CN1c1ccc(Nc2ncc3ccn(-c4ccc(S(N)(=O)=O)cc4)c3n2)cn1` (racemic) [Example 357, 4-{2-[6-((2R,5S)-2,5-Dimethyl-piperazin-1-yl)-pyridin-3-ylamino]-pyrrolo[2,3-d]pyrimidin-7-yl}-benzenesulfonamide]: the IC50 – broadly, the point on the concentration scale where inhibition reaches its midpoint – came to 6.9 nM. In the case of `Cc1ccc(Nc2ncc3ccn(-c4ccc(C(=O)N5CCOCC5)c(F)c4)c3n2)cc1CN1C[C@H](C)NC[C@H]1C` (racemic) [Example 379, (4-{2-[3-((2R,5S)-2,5-Dimethyl-piperazin-1-ylmethyl)-4-methyl-phenylamino]-pyrrolo[2,3-d]pyrimidin-7-yl}-2-fluoro-phenyl)-morpholin-4-yl-methanone] it was 11 nM. As for `OC1CCN(Cc2ccc(Nc3ncc4ccn(-c5cc(F)c(CN6CCOCC6)c(F)c5)c4n3)cn2)C1` (racemic) [Example 388, 1-{5-[7-(3,5-Difluoro-4-morpholin-4-ylmethyl-phenyl)-7H-pyrrolo[2,3-d]pyrimidin-2-ylamino]-pyridin-2-ylmethyl}-pyrrolidin-3-ol], the IC50 was no more than 3 nM. In the case of `OC1CCN(Cc2cc(Nc3ncc4ccn(-c5cc(F)c(CN6CCOCC6)c(F)c5)c4n3)ccn2)C1` (racemic) [Example 416, 1-{4-[7-(3,5-Difluoro-4-morpholin-4-ylmethyl-phenyl)-7H-pyrrolo[2,3-d]pyrimidin-2-ylamino]-pyridin-2-ylmethyl}-pyrrolidin-3-ol] it was no more than 3 nM; in that of `COC(C)c1ccc(-n2ccc3cnc(Nc4ccc(N5CCN(C)CC5)nc4)nc32)cc1` (racemic) [Example 449, {7-[4-(1-Methoxy-ethyl)-phenyl]-7H-pyrrolo[2,3-d]pyrimidin-2-yl}-[6-(4-methyl-piperazin-1-yl)-pyridin-3-yl]-amine], no more than 3 nM. In the case of `COc1ccc(Nc2ncc3ccn(-c4ccc(S(C)(=O)=O)cc4)c3n2)cc1OC` [Example 5, (3,4-Dimethoxy-phenyl)-[7-(4-methanesulfonyl-phenyl)-7H-pyrrolo[2,3-d]pyrimidin-2-yl]-amine] it was less than 3 nM; in that of `COc1ccc(Nc2ncc3ccn(-c4ccc(S(=O)(=O)NC(C)(C)C)cc4)c3n2)cc1OC` [Example 6, N-tert-Butyl-4-[2-(3,4-dimethoxy-phenylamino)-pyrrolo[2,3-d]pyrimidin-7-yl]-benzenesulfonamide], less than 3 nM. Next, `COc1cc(Nc2ncc3ccn(-c4ccc(C(=O)NC(C)(C)C)cc4)c3n2)cc(OC)c1OC` [Example 9, N-tert-Butyl-4-[2-(3,4,5-trimethoxy-phenylamino)-pyrrolo[2,3-d]pyrimidin-7-yl]-benzamide]: less than 3 nM; `COc1cc(Nc2ncc3ccn(-c4ccc(S(=O)(=O)N(C)C)cc4)c3n2)cc(OC)c1OC` [Example 10, N,N-Dimethyl-4-[2-(3,4,5-trimethoxy-phenylamino)-pyrrolo[2,3-d]pyrimidin-7-yl]-benzenesulfonamide]: less than 3 nM. With `COc1cc(C)c(Nc2ncc3ccn(-c4ccc(S(C)(=O)=O)cc4)c3n2)cc1OC` [Example 11, (4,5-Dimethoxy-2-methyl-phenyl)-[7-(4-methanesulfonyl-phenyl)-7H-pyrrolo[2,3-d]pyrimidin-2-yl]-amine], the IC50 was 190 nM. In the case of `CN1CCN2c3ccc(Nc4ncc5ccn(-c6ccc(S(C)(=O)=O)cc6)c5n4)cc3COCC2C1` (stereo not shown) [Example 12, [7-(4-Methanesulfonyl-phenyl)-7H-pyrrolo[2,3-d]pyrimidin-2-yl]-(3-methyl-1,2,3,4,4a,5-hexahydro-7H-6-oxa-3,11b-diaza-dibenzo[a,c]cyclohepten-9-yl)-amine], the IC50 was less than 3 nM. `CS(=O)(=O)c1ccc(-n2ccc3cnc(Nc4ccc5c(c4)OC(F)(F)C(F)(F)O5)nc32)cc1` [Example 14, [7-(4-Methanesulfonyl-phenyl)-7H-pyrrolo[2,3-d]pyrimidin-2-yl]-(2,2,3,3-tetrafluoro-2,3-dihydro-benzo[1,4]dioxin-6-yl)-amine]: the IC50 came out at 2100 nM. Next, `CS(=O)(=O)c1ccc(-n2ccc3cnc(Nc4ccc5c(c4)OCO5)nc32)cc1` [Example 15, Benzo[1,3]dioxol-5-yl-[7-(4-methanesulfonyl-phenyl)-7H-pyrrolo[2,3-d]pyrimidin-2-yl]-amine]: 8.5 nM; `CN1CCN(c2ccc(Nc3ncc4ccn(-c5ccc(S(C)(=O)=O)cc5)c4n3)cc2)CC1` [Example 18, [7-(4-Methanesulfonyl-phenyl)-7H-pyrrolo[2,3-d]pyrimidin-2-yl]-[4-(4-methyl-piperazin-1-yl)-phenyl]-amine]: less than 3 nM. In the case of `CS(=O)(=O)c1ccc(-n2ccc3cnc(Nc4ccccc4)nc32)cc1` [Example 19, [7-(4-Methanesulfonyl-phenyl)-7H-pyrrolo[2,3-d]pyrimidin-2-yl]-phenyl-amine] it was 6.9 nM. In the case of `COc1ccc(Nc2ncc3ccn(-c4ccc(S(C)(=O)=O)cc4)c3n2)cc1` [Example 20, [7-(4-Methanesulfonyl-phenyl)-7H-pyrrolo[2,3-d]pyrimidin-2-yl]-(4-methoxy-phenyl)-amine] it was 3.9 nM; in that of `CN(C)c1ccc(Nc2ncc3ccn(-c4ccc(S(C)(=O)=O)cc4)c3n2)cc1` [Example 21, N-[7-(4-Methanesulfonyl-phenyl)-7H-pyrrolo[2,3-d]pyrimidin-2-yl]-N′,N′-dimethyl-benzene-1,4-diamine], 23 nM.

`COc1ccc(Nc2ncc3ccn(-c4ccc(S(C)(=O)=O)cc4)c3n2)c(OC)c1` [Example 22, (2,4-Dimethoxy-phenyl)-[7-(4-methanesulfonyl-phenyl)-7H-pyrrolo[2,3-d]pyrimidin-2-yl]-amine]: the IC50 is 170 nM. In the case of `COc1cc(Nc2ncc3ccn(-c4ccc(S(C)(=O)=O)cc4)c3n2)cc(OC)c1` [Example 23, (3,5-Dimethoxy-phenyl)-[7-(4-methanesulfonyl-phenyl)-7H-pyrrolo[2,3-d]pyrimidin-2-yl]-amine] it was 3.6 nM; in that of `COc1ccc(Nc2ncc3ccn(-c4ccc(S(C)(=O)=O)cc4)c3n2)cc1O` [Example 24, 5-[7-(4-Methanesulfonyl-phenyl)-7H-pyrrolo[2,3-d]pyrimidin-2-ylamino]-2-methoxy-phenol], 3.5 nM.

For `COc1ccc(Nc2ncc3ccn(-c4ccc(S(C)(=O)=O)cc4)c3n2)cc1N1CCN(C)CC1` [Example 25, [7-(4-Methanesulfonyl-phenyl)-7H-pyrrolo[2,3-d]pyrimidin-2-yl]-[4-methoxy-3-(4-methyl-piperazin-1-yl)-phenyl]-amine], the IC50 is less than 3 nM. Next, `COc1ccc(Nc2ncc3ccn(-c4ccc(S(C)(=O)=O)cc4)c3n2)cc1OCCN(C)C` [Example 26, [3-(2-Dimethylamino-ethoxy)-4-methoxy-phenyl]-[7-(4-methanesulfonyl-phenyl)-7H-pyrrolo[2,3-d]pyrimidin-2-yl]-amine]: less than 3 nM; `CN1CCN(C(=O)c2ccc(Nc3ncc4ccn(-c5ccc(S(C)(=O)=O)cc5)c4n3)cc2)CC1` [Example 28, {4-[7-(4-Methanesulfonyl-phenyl)-7H-pyrrolo[2,3-d]pyrimidin-2-ylamino]-phenyl}-(4-methyl-piperazin-1-yl)-methanone]: 4 nM. `CN1CCN(CCOc2cccc(Nc3ncc4ccn(-c5ccc(S(C)(=O)=O)cc5)c4n3)c2)CC1` [Example 32, [7-(4-Methanesulfonyl-phenyl)-7H-pyrrolo[2,3-d]pyrimidin-2-yl]-{3-[2-(4-methyl-piperazin-1-yl)-ethoxy]-phenyl}-amine]: the IC50 amounted to 5.4 nM.

`CCN(CC)CCOc1ccc(Nc2ncc3ccn(-c4ccc(S(C)(=O)=O)cc4)c3n2)cc1` [Example 33, [4-(2-Diethylamino-ethoxy)-phenyl]-[7-(4-methanesulfonyl-phenyl)-7H-pyrrolo[2,3-d]pyrimidin-2-yl]-amine]: the IC50 is less than 3 nM.
